Source: patent EP0187355A1, “Process for preparing beta-lactam antibiotics” (E.R. Squibb & Sons, Inc., priority 1981, dated 1982)
Counter-ions that a name gives are not always drawn.

How the values were obtained:
Experiment in all cases: MIC, agar dilution
Type in all cases: cell-based
[1] = system: Enterobacter aerogenes, 10078; settings: Klebsiella aerogenes, 10078, 18 h, Enterobacter aerogenes, 10078; K-10 agar, 10^4 CFU, 37°C, 18 hours; read-out: M.I.C.
How it was run: (§1)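 Test strains are first grown in broth at 37°C for 18–20 hours, then diluted 1:100. Compounds are serially halved and mixed into K-10 agar at final levels from 100 to 0.05 µg/ml. Each plate receives about 10^4 CFU per organism, and growth is scored after 18 hours at 37°C.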

[2] = system: Proteus rettgeri, 8479; settings: Providencia rettgeri, K-10 agar, 10^4 CFU, 37°C, 18 hours, read-out: M.I.C.
How it was run: as §1

[3] = system: Acinetobacter calcoaceticus, 8333; settings: Acinetobacter calcoaceticus, 8333, 18 h, K-10 agar, 10^4 CFU, 37°C, read-out: M.I.C.
How it was run: as §1

[4] = system: Pseudomonas aeruginosa, 9545; settings: Pseudomonas aeruginosa, 9545, 18 h, K-10 agar, 10^4 CFU, 37°C, read-out: M.I.C.
How it was run: as §1

[5] = system: Shigella sonnei, 8449; settings: Shigella sonnei, 8449, 18 h, K-10 agar, 10^4 CFU, 37°C
How it was run: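 Inhibition of growth on compound-containing K-10 agar (final 100 to 0.05 µg/ml, twofold series) defined the endpoint, scored after 18 h at 37°C. Spots carried 10^4 CFU, with drug-free growth control plates inoculated before and after test plates.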

[6] = system: Klebsiella aerogenes, 10440; settings: K-10 agar, 10^4 CFU, 37°C, 18 hours, read-out: M.I.C.
How it was run: as §1

[7] = system: Staphylococcus aureus, 10165; settings: Staphylococcus aureus, 10165; K-10 agar, 10^4 CFU, 37°C, 18 hours; read-out: M.I.C.
How it was run: as §1

[8] = system: Escherichia coli, 10896; settings: K-10 agar, 10^4 CFU, 37°C, 18 hours
How it was run: as §1

[9] = system: Klebsiella pneumoniae, 9527; settings: Klebsiella pneumoniae, 9527, 18 h, K-10 agar, 10^4 CFU, 37°C, read-out: M.I.C.
How it was run: as §1

[10] = system: Escherichia coli, 10857; settings: Escherichia coli, 10857, 18 h, K-10 agar, 10^4 CFU, 37°C
How it was run: as §1

[11] = system: Staphylococcus aureus, 2399; settings: Staphylococcus aureus, 2399, 18 h, Staphylococcus aureus, 2399; K-10 agar, 10^4 CFU, 37°C, 18 hours; read-out: M.I.C.
How it was run: as §1

[12] = system: Escherichia coli, 10909; settings: K-10 agar, 10^4 CFU, 37°C, 18 hours
How it was run: as §1

[13] = system: Escherichia coli, 8294; settings: Escherichia coli, 8294, 18 h, K-10 agar, 10^4 CFU, 37°C
How it was run: as §1

[14] = system: Proteus vulgaris, 9416; settings: K-10 agar, 10^4 CFU, 37°C, 18 hours, read-out: M.I.C.
How it was run: as §1

[15] = system: Proteus mirabilis, 3855; settings: Proteus mirabilis, 3855, 18 h, K-10 agar, 10^4 CFU, 37°C, read-out: M.I.C.
How it was run: as §1

[16] = system: Citrobacter freundii, 9518; settings: K-10 agar, 10^4 CFU, 37°C, 18 hours, read-out: M.I.C.
How it was run: as §1

[17] = system: Streptococcus faecalis, 9011; settings: Enterococcus faecalis; Streptococcus faecalis, 9011; K-10 agar, 10^4 CFU, 37°C, 18 hours; read-out: M.I.C.
How it was run: as §1

[18] = system: Serratia marcescens, 9783; settings: K-10 agar, 10^4 CFU, 37°C; for MIC: Serratia marcescens, 9783, 18 h, read-out: M.I.C.
How it was run: as §1

[19] = system: Staphylococcus aureus, 2400; settings: Staphylococcus aureus, 2400; K-10 agar, 10^4 CFU, 37°C, 18 hours; read-out: M.I.C.
How it was run: as §1

[20] = system: Pseudomonas aeruginosa, 8329; settings: K-10 agar, 10^4 CFU, 37°C, 18 hours, read-out: M.I.C.
How it was run: as §1

[21] = system: Salmonella typhosa, 1195; settings: Salmonella enterica, TYPHOSA, 18 h, K-10 agar, 10^4 CFU, 37°C
How it was run: as §1

[22] = system: Staphylococcus aureus, 1276; settings: Staphylococcus aureus, 1276; K-10 agar, 10^4 CFU, 37°C, 18 hours; read-out: M.I.C.
How it was run: as §1

[23] = system: Streptococcus agalactiae, 9287; settings: Streptococcus agalactiae, 9287, 18 h, K-10 agar, 10^4 CFU, 37°C, read-out: M.I.C.
How it was run: (§2)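 Broth cultures grown 18-20 h at 37°C, diluted 1:100 in K-10 broth, applied by multipoint inoculator at 10^4 CFU onto K-10 agar holding twofold compound dilutions, 100 to 0.05 µg/ml final. MIC taken as lowest concentration inhibiting growth.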

[24] = system: Micrococcus luteus, 2495; settings: K-10 agar, 10^4 CFU, 37°C; for MIC: Micrococcus luteus, 2495, 18 h, read-out: M.I.C.
How it was run: as §2

[25] = system: Enterobacter cloacae, 8236; settings: Enterobacter cloacae, 8236, 18 h, K-10 agar, 10^4 CFU, 37°C
How it was run: as §2

Structure (SMILES) | MIC [1] [µg/mL] | MIC [2] [µg/mL] | MIC [3] [µg/mL] | MIC [4] [µg/mL] | MIC [5] [µg/mL] | MIC [6] [µg/mL] | MIC [7] [µg/mL] | MIC [8] [µg/mL] | MIC [9] [µg/mL] | MIC [10] [µg/mL] | MIC [11] [µg/mL] | MIC [12] [µg/mL] | MIC [13] [µg/mL] | MIC [14] [µg/mL] | MIC [15] [µg/mL] | MIC [16] [µg/mL] | MIC [17] [µg/mL] | MIC [19] [µg/mL] | MIC [20] [µg/mL] | MIC [21] [µg/mL] | also measured
CCN1CCN(C(=O)N[C@@H](C(=O)N[C@@H]2C(=O)N(S(=O)(=O)O)[C@@H]2C)c2ccccc2)C(=O)C1=O (relative stereo) [Example 22, [3S-[3α(R*),4α]]-3-[[[[(4-ethyl-2,3-dioxo-1-piperazinyl)carbonyl]amino]phenylacetyl]-amino]-4-methyl-2-oxo-1-azetidinesulfonic acid, potassium salt] | 6.3 | 0.2 | 12.5 | 6.3 | 1.6 | 12.5 | 100 | 1.6 | 0.1 | 0.1 | 6.3 | 0.4 | 3.1 | < 0.05 | 0.4 | 3.1 | > 100 | 25 | 12.5 | 0.4 | MIC [18]: 6.3 µg/mL; MIC [22]: 6.3 µg/mL; MIC [23]: 6.3 µg/mL; MIC [24]: 6.3 µg/mL; MIC [25]: 0.8 µg/mL
C[C@H]1[C@H](NC(=O)OCc2ccccc2)C(=O)N1S(=O)(=O)O [Example 2, (3S-trans)-4-Methyl-2-oxo-3-[[(phenylmethoxy)carbonyl]-amino]-1-azetidinesulfonic acid, potassium salt] | > 100 | > 100 | > 100 | > 100 | > 100 | > 100 | > 100 | > 100 | > 100 | > 100 | 100 | > 100 | > 100 | > 100 | > 100 | > 100 | > 100 | 100 | > 100 | > 100 | MIC [18]: > 100 µg/mL; MIC [22]: 100 µg/mL; MIC [23]: 100 µg/mL; MIC [24]: 100 µg/mL; MIC [25]: > 100 µg/mL
C[C@H]1[C@H](NC(=O)Cc2ccccc2)C(=O)N1S(=O)(=O)O [Example 3, (3S-trans)-4-Methyl-2-oxo-3-[(phenylacetyl)amino]-1-azetidinesulfonic acid, potassium salt] | > 100 | 50 | > 100 | 50 | 50 | 100 | 100 | 50 | 100 | 50 | 50 | 25 | 100 | 100 | 100 | 100 | > 100 | 50 | > 100 | 50 | MIC [18]: 50 µg/mL; MIC [22]: 50 µg/mL; MIC [23]: 25 µg/mL; MIC [24]: 25 µg/mL; MIC [25]: > 100 µg/mL
CON=C(C(=O)NC1C(=O)N(S(=O)(=O)O)C1C)c1csc(N)n1 (stereo not drawn) [Example 5, [3S-[3α(Z),4β]]-3-[[2-Amino-4-thiazolyl) (methoxyimino)-acetyl]amino]-4-methyl-2-oxo-1-azetidinesulfonic acid, potassium salt] | 0.4 | < 0.05 | 12.5 | 0.8 | 0.1 | 0.2 | > 100 | 0.1 | 0.1 | < 0.05 | 100 | < 0.05 | 0.1 | < 0.05 | 0.1 | 0.1 | > 100 | 50 | 100 | < 0.05 | M.I.C. ([18]; 18 hours, potassium salt): 0.8 µg/mL; MIC [22]: 100 µg/mL; MIC [23]: 3.1 µg/mL; M.I.C. ([24]; 18 hours, potassium salt): 3.1 µg/mL; MIC [25]: 0.2 µg/mL
